Test results reported in patent publication US11020422B2, “Cyclodextrin for the treatment of lysosomal storage diseases” (The United States of America, as represented by the …, priority 2012, dated 2021).
Read-outs that look alike come from different tables or passages of the source.

Key:
[1] = tested on: NPC1 fibroblasts; assay: Lysosomal Ca2+ released by GPN in NPC1 fibroblasts; assay type: cell-based, human; conditions: 40 μM, 24 hours
Source text: (§1) FIG. 4. (calcium assay) Delta-T increases intracellular Ca^2+ concentration and ameliorates lysosomal calcium deficiency in NPC1 cells—Increase in the concentration of intracellular Ca^2+, an important second messenger, triggers a variety of cellular responses including lysosomal exocytosis. In NPC1 fibroblasts there is a dysregulation of calcium homeostasis, as evidenced by lysosomal Ca^2+ deficiency. […] Consistent with an earlier report, lysosomal Ca^2+ was reduced in NPC1 cells compared with that in control cells.

[2] = tested on: Wolman fibroblasts; assay: Nile Red staining of neutral lipids in Wolman fibroblasts; conditions: cultured with compound for 3 days
Method: Nile-red Staining—The cells were cultured and treated as described above in 96-well plates. On the experimental day, cells were washed two times with PBS and live-stained with 1 μM Nile-red dye solution (prepared in cell culture medium) at 100 μl/well followed by an incubation at 37° C. for 10 min. After washed twice with PBS, the cells were fixed in 3.2% paraformaldehyde in PBS at 100 μl/well 1 μg/ml Hoechst 33342 (Invitrogen) in PBS and incubation at RT for 30 min. The plate was washed twice with PBS and the images were measured in Incell2000 imaging plate reader with a FTTC filter set (Ex=480±20 nm and Ex=525±36 nm) for the neutral lipids (cholesteryl esters and triglycerides) and a DAPI filter set for Hoechst nuclear staining.
(Nile Red) Cells were cultured in the presence of delta tocopherol, alpha tocopherol and MBCD plus in combination for 3 days and then stained for neutral lipid with Nile red.
Wolman fibroblasts were treated with δ-tocopherol, α-tocopherol, methyl-β-cyclodextrin, or combinations of δ-tocopherol and methyl-β-cyclodextrin or α-tocopherol and methyl-β-cyclodextrin. […] To further characterize the effect of treatment on lipid accumulation, treated fibroblasts were evaluated using a Nile Red assay to measure neutral lipid accumulation. […] The Nile Red staining was visualized by fluorescent microscopy.

[3] = tested on: NPC1 and Wolman fibroblasts, control fibroblasts; assay: Intracellular cytosolic Ca2+ measurement (Fluo-8); assay type: cell-based, human
Source text: as §1

[4] = tested on: NPC1 skin fibroblasts; assay: Cholesterol accumulation (Amplex-red, filipin) and enlarged lysosomes (Lysotracker) in NPC1 skin fibroblasts; assay type: cell-based, human; conditions: NPC1 skin fibroblasts; concentration dependent
Method: (§2) Amplex-Red Cholesterol Assay—Total cholesterol in patient cells was measured by the Amplex-Red Cholesterol Assay Kit (Invitrogen). The unesterified cholesterol was determined using the same kit without the enzyme […]. Esterified cholesterol was determined as the difference between the total and unesterified cholesterol values. The cells were seeded to black, tissue culture-treated 96-well, 384-well or 1536-well plates at 4000, 1000, 300 cells/well in 100, 20 or 5 μl medium by a Multidrop Combi dispenser (Thermo Scientific, Waltham, Mass.) and cultured for 24 hr. The assay plates were added with compound dilution in DMSO solution using a Pintool station (Klaypsys, San Diego, Calif.) and cultured for 3 days. The cells were washed twice manually for 96-well or 384-well plates or using a centrifugation method in which the inverted plates were placed on a stack of paper towel and centrifuged at 800 rpm for 1 min followed by addition of 7 μl/well PBS (added gently with a 45 degree angled liquid dispenser (Klaypsys). The cholesterol assay mixture from the kit was added at 100, 20 or 2.5 μl/well for 96-well, 384-well or 1536-well plates and incubated for 1 hr at 37° C. The resulted fluorescence intensity was measured with excitation of 560 (±10) and emission of 590 (±10) in a fluorescence plate reader (Tecan, Durham, N.C.).

[5] = tested on: Wolman fibroblasts; assay: Amplex-Red cholesterol assay in Wolman fibroblasts; assay type: cell-based, human; conditions: Wolman fibroblasts
Method: as §2

[6] = tested on: fibroblasts derived from patients with lysosomal storage diseases; assay: LysoTracker dye staining of enlarged lysosomes; assay type: cell-based, human
Method: On the experimental day, cells were live-stained with 100 μl/well 50 nM LysoTracker-Red DND-99 dye (Invitrogen, #L-7528) in medium at 37° C. for 1 hr followed by plate washing twice with PBS. The plate was then fixed in 100 μl/well 3.2% formaldehyde for 1 hr and washed for two times with PBS. […] After washing twice with PBS, the plates were stored at 4° C. until imaging analysis. DAPI filter set and TRITC filter set in the Incell2000 imaging plate reader were used to visualize Hoechst nuclear staining and LysoTracker staining, respectively.
FIG. 5. […] To test this hypothesis we measured the ability of delta-T to decrease acidic/lysosomal compartment size as determined by LysoTracker staining in fibroblasts derived from patients with six other diseases. Lysosomal storage occurs in these fibroblasts consists of ceroid/lipofuscin in Batten (CLN2), globotriaosylceramide in Fabry, ceramide in Farber, sphingomyelin in NPA, partially degraded heparan sulfate in Sanfilippo type B, and GM2 ganglioside in Tay-Sachs (Table S1).
The effect of various cyclodextrins, δ-tocopherol, and combinations of cyclodextrins and δ-tocopherol on lipid accumulation and lysosome size in wild-type and lysosomal storage disease fibroblasts (Wolman, Tay-Sach, Fabry, Farber, and MPSIIIB fibroblasts) was determined using Lysotracker assay. In brief, cells were treated with various combinations and concentrations of drugs followed by staining with the Lyso tracker dye which is a basophilic fluorescent probe that accumulates in acidic compartments, i.e. lysosomes, within the cell.

[7] = tested on: NPC cells; conditions: NPC / NPC1 cells; reported; cited from earlier work
[8] = tested on: NPC1, Wolman and other lysosome storage disorder fibroblasts; assay: Electron microscopy of lysosomal ultrastructure
Method: Electron Microscopy—Fibroblast cells were seeded in 6-well plates at 150,000 cells/well in 5 ml medium and cultured for 1 day in the presence or absence of compounds. Cells were fixed in 2% glutaraldehyde, 0.1 M cacodylate buffer, pH 7.2 for 1 hr at room temperature and then stored at 4° C. until TEM analysis was performed. The cells were post fixed in 1% osmium tetroxide in the same buffer for 1 hour and en bloc stained with 0.5% uranyl acetate in 0.1 M acetate buffer, pH 4.2. The cells were then dehydrated in graded ethanol solutions (35%, 50%, 70%, 95% and 100%) and infiltrated overnight in epoxy resin (Poly/Bed 812, Polysciences). After adding fresh pure resin the cell plates were cured for 72 h in 55° C. After removing the polystyrene plates, suitable areas for thin sectioning were selected, cut out with a jewelry saw and glued onto empty resin stubs. About 70 nm thin sections were cut on an ultramicrotome (Leica EM UC6) and mounted on naked copper grids. The thin sections were double stained (uranyl acetate and lead citrate), examined in a Hitachi H-7650 transmission electron microscope, and images were taken using an AMT CCD camera.
The effects of δ-tocopherol and methyl-β-cyclodextrin on the ultrastructural pathology of lysosomes in lysosome storage disorder cells were investigated by electron microscopy. In brief, following treatment of wild-type and lysosome storage disorder fibroblasts with δ-tocopherol, methyl-β-cyclodextrin, or δ-tocopherol and methyl-β-cyclodextrin, the fibroblasts were fixed and embedded. Thin sections of the embedded cells were then prepared and the ultrastructural pathology was examined by electron microscopy. […] The effects of δ-tocopherol and/or methyl-β-cyclodextrin on the ultrastructural pathology of other lysosome disorder fibroblasts-Farber (FIGS. 7,8 and 10); Tay-Sachs (FIG. 8); Fabry (FIG. 8); Wolman (FIG. 9); NPA (FIG. 9); Batten (FIG. 9); MSIIB (FIG. 9)—were analyzed by electron microscopy.

[9] = tested on: NPC1-NSCs; assay: Amplex-red cholesterol assay in NPC1 neural stem cells; assay type: cell-based, human
Method: as §2
Induced pluripotent stem cells (IPSCs) from the NPC1 skin fibroblasts were generated and differentiated into neural stem cells (NPC1-NSCs).

[10] = tested on: Wolman fibroblasts; assay: β-Hexosaminidase (HEXB) release, lysosomal exocytosis; assay type: cell-based, human; conditions: 40 μM, 24 hours, compared with vehicle treated cells
Method: Measurement of β-Hexosaminidase (HEXB) Release—Fibroblasts were cultured in 24-well plates at 30,000 cells/well in 0.4 ml medium for one day at 37° C. After being washed twice with the assay buffer (DMEM with 2 mM D-mannose 6-phosphate sodium salt), the cells with 0.4 ml/well the assay buffer were incubated at 37° with 0.2 ml/well compound in assay buffer. […] The rest of assay buffer in the 24-well plate was discarded followed by addition of 0.6 ml 1% Triton-X100 in dH2O to lyse the cells. After incubation at 37° C. for 30 min. 6 μl/well cell lysate were added to the 96-well plate with 24 μl assay buffer followed by 90 μl/well 2.25 mM HEXB substrate, 4-Methylumbelliferyl N-acetyl-β-D-glucosaminide (Sigma-Aldrich, #M2133), in a 25 mM citric acid buffer at pH 4.5. The 96-well plate was then measured in the Tecan fluorescence plate reader (Ex=365±20 nm and Em=460±20 nm) after 1 hr incubation at 37° C. and addition of 100 μl/well stop solution (1 M glycine and 1 M NaOH at pH 10.5).
FIG. 3. […] We measured lysosomal exocytosis in delta-T-treated Wolman fibroblasts by determining the activity of beta-hexosaminidase (HEXB), a lysosomal enzyme, in the extracellular medium.
In brief, the level of lysosomal exocytosis was determined by measuring the level of the lysosomal enzyme HEXB secreted into the culture medium following treatment with drug.

IC50 ([9]; NPC1-NSCs, FIG. 12A, read-out: IC50, Amplex-red cholesterol assay): 18 µM | IC50 ([9]; human NPC1 neural stem cells, values given under dosage recommendations, read-out: IC50 on reduction of cholesterol accumulation, Amplex-red cholesterol assay): 15 µM | HEXB activity in culture medium [10]: increased
Compound: Cc1cc(O)cc2c1O[C@](C)(CCC[C@H](C)CCC[C@H](C)CCCC(C)C)CC2 [delta-tocopherol]
lysosomal Ca2+ released by GPN [1]: significantly increased lysosomal Ca^2+ | neutral lipid accumulation (Nile red) ([2]; FIG. 2): reduces accumulation of neutral lipids | neutral lipid accumulation (Nile red) ([2]; FIG. 2, listed as δ-tocopherol): significantly reduced | cytosolic Ca2+ [3]: stimulated a transient increase of cytosolic Ca^2+ | unesterified cholesterol accumulation (Amplex Red) [4]: dramatically reduces cellular cholesterol accumulation | reduction in total cholesterol ([5]; FIGS. 1A-1C): significant reduction | reduction in free cholesterol ([5]; FIGS. 1D-1F): significant reduction | LysoTracker staining ([6]; 40 μM, six fibroblast lines: Batten (CLN2), Fabry, Farber, NPA, Sanfilippo type B, Tay-Sachs): significantly reduced the LysoTracker staining | LysoTracker staining ([6]; NPC1 and Wolman fibroblasts, 40 μM delta-T or 300 μM MBCD): significantly reduced LysoTracker staining | lipid accumulation and lysosome size (Lysotracker) ([6]; Wolman, Tay-Sach, Fabry, Farber, MPSIIIB fibroblasts, FIGS. 5A-5D): reduced lipid accumulation and lysosome size | cholesterol efflux, accumulation or storage [7]: increased the cholesterol efflux from NPC cells and reduced cholesterol accumulation | characteristic storage materials in lysosomes (electron microscopy) ([8]; 40 μM, NPC1 and Wolman cells): significantly reduced the characteristic storage materials | abnormal lysosomal structures (electron microscopy) ([8]; Wolman fibroblasts, FIG. 6): significantly reduced | potency in NPC1 neuronal cells compared to NPC1 skin fibroblasts [9]: weaker | cholesterol accumulation, combination therapy experiment ([9]; 50 μM HBPCD, 10 μM delta-tocopherol, alone or combined, compared with 5 mM HBPCD): did not show the significant cholesterol reduction effect
